Test results reported in patent US4029731A, “Aminophenyltetralin compounds” (Pfizer Inc., priority 1976, dated 1977).
Where a name gives a salt, the structure may show the parent alone.

What was measured:
Format in all cases: in vivo
[1] = test system: motor activity in mice; avoidance behavior in rats; experiment: Psychomotor stimulant activity (motor activity in mice; Sidman avoidance in rats); details: as the hydrochloride salt
Excerpt: On the other hand, the activity of the compounds of the present invention, as psychomotor stimulants, is based on a variety of tests, including (1) a study of their motor activity in mice and (2) a measurement of their ability to influence the loss of avoidance behavior in rats trained on a non-discriminated (Sidman) avoidance schedule.

rats = experiment: Antidepressant and psychomotor stimulant activity in rats, intraperitoneal; details: i.p., 3.2 mg./kg. to 32 mg./kg.
Excerpt: (§1) As previously indicated, the 1-amino-4-phenyltetralin compounds of this invention (in the form of their trans-isomers) are all readily adapted to therapeutic use as psychotropic agents, particularly in view of their potent antidepressant and psychomotor stimulant properties. […] The other compounds of this invention also cause similar results. Furthermore, all the herein described trans-isomers of this invention can be administered as psychotropic agents by either the oral or parenteral routes of administration, for the present purposes at hand, without causing any significant untoward pharmacological side effects to occur in the subject to whom they are so administered. In general, these psychotropic compounds are normally administered in dosages ranging from about 0.3 mg., to about 10 mg. per kg. of body weight per day, although variations will necessarily occur depending upon the weight and conditions of the subject being treated and the particular route of administration chosen.

[2] = Toxic / untoward side effects on administration; details: rats, i.p., 3.2 mg./kg. to 32 mg./kg.
Excerpt: as §1

[3] = test system: non-discriminated (Sidman) avoidance behavior rats; experiment: Non-discriminated (Sidman) avoidance behavior in rats; details: 5 mg./kg. and 10 mg./kg. i.p.
Excerpt: Eight (8) mature male rats were trained in Lehigh Valley automatic multiple-operant conditioning chambers to avoid a 2.0 mA electric shock that would last for 0.75 second, or terminate sooner if the rat lever became activated during the shock. In these tests, lever presses postponed the onset of shock for an initial period of 30 seconds, while only 10 seconds elapsed between shocks if no intervening response was elicited. The rats were run for a 40-minute control period before receiving the drug and then for approximately 2.5 hours after each treatment.

[4] = test system: reserpine-induced hypothermia in the mouse; experiment: Reversal of reserpine-induced hypothermia in the mouse; details: 32 mg./kg. i.p., 2 hours after dosing; reserpine 2 mg./kg. s.c. 18 hours before; saline control 25.1° ± 3.2° C.
Procedure: The 1-amino-4-phenyltetraline final products of Examples III-IX were tested for antidepressant activity by measuring their ability to reverse reserpine-induced hypothermia in the mouse according to the procedure described by B.M. Askew in Life Science, Vol. 2, p. 725 (1963). In this test, all the animals were individually housed in plastic chambers with a cardboard bottom. The mice were injected with reserpine subcutaneously at 2 mg./kg. and retained at an ambient temperature of 20° C. for a period of 18 hours. At this point, their rectal temperatures were initially ascertained and immediately thereafter they were divided into groups of 5-20 animals for testing purposes. Each group then received either saline as a control or the compound to be tested at a dose level of 32 mg./kg., administered intraperitoneally, and the resulting rectal temperatures were measured two hours later. In the table below, the entries are reported as mean rectal temperatures for each compound at the 2-hour mark, together with the number of animals tested in each particular group.

[5] = test system: spontaneous motor activity in mice; experiment: Spontaneous motor activity in mice (actophotometer activity counts)
Procedure: A total of seven mice was employed at each dose level tested (viz., at 0.32, 1.0, 3.2, 10 and 32 mg./kg., i.p., respectively) and these mice were separated one to an activity cage. After an initial one-half hour exposure period (for acclimation purposes), each animal in the cage was treated with a sample of the drug intraperitoneally and immediately thereafter returned to said cage, with activity counts every one-half hour being recorded from that point on.

CN[C@@H]1CC[C@@H](c2ccccc2)c2ccccc21 [Trans-d-isomer of Example III, trans-d-N-methyl-4-phenyl-1,2,3,4-tetrahydro-1-naphthylamine as the hydrochloride]
duration of motor stimulant activity [1]: long duration of motor stimulant activity
onset of action [1]: rapid onset of action
potency as psychomotor stimulant compared with methylphenidate [1]: comparable in potency to methylphenidate
antidepressant and psychomotor stimulant activity (rats): marked antidepressant and psychomotor stimulant activity
signs of toxic side effects [2]: without showing any substantial signs of toxic side effects
duration of drug effect after administration [3]: approximately one and a half
start of drug effect [3]: ≤ 20 min
increase of response rates over normal pre-drug control levels ([3]; four out of eight rats): 2-6 times
response rates ([3]; four out of eight rats): moderate to marked increase in response rates
increase of response rates over pre-drug control levels ([3]; two other rats): about 1.5 times
Mean Rectal Temperature, Temp. (° C.) ±S.D. [4]: 34.1 ± 0.7 °C
duration of effect compared with d-amphetamine sulfate ([5]; 10 mg./kg. i.p. vs d-amphetamine sulfate at 3.2 mg./kg.): even more prolonged in its effect than did that of d-amphetamine sulfate
effect on activity counts compared with d-amphetamine sulfate ([5]; 10 mg/kg. i.p. vs d-amphetamine sulfate at 3.2 mg./kg.): more pronounced than that of d-amphetamine sulfate
effect on activity counts compared with methylphenidate ([5]; 10 mg/kg. i.p. vs methylphenidate at 10 mg./kg.): surpassing even that of methylphenidate
activity counts ([5]; 10 mg/kg.(i.p.), 30-60 minutes after treatment): markedly elevated the activity counts
